Assay results published in ChEMBL document CHEMBL2094260, “Malaria Box Tuberculosis Screening Data”.

Key:
[1] = system: Mycobacterium tuberculosis; assay: MMV: Screen against Mtb, single point, non replicating, at 25uM; format: functional
[2] = system: Mycobacterium tuberculosis; assay: MMV: Screen against Mtb, single point, replicating, at 25uM; format: functional

Row | SMILES | inhibition at 25 µM [1] | inhibition at 25 µM [2]
1 | Oc1ccc(Cl)cc1CNc1nc2ccccc2[nH]1 | 4.53% | 38.6%
2 | CCn1c(CN2CCN(Cc3ccccc3)CC2)nc2cc(NC(=O)c3cccs3)ccc21 | 15.2% | 12.5%
3 | CN(C)CCCNc1c2ccccc2nc2ccccc12 | 17.8% | 18.4%
4 | COc1ccc(C(=O)NC(c2ccc(Cl)cc2Cl)c2cc(Cl)c3cccnc3c2O)cc1 (stereo not given) | -4.19% | 3.06%
5 | COc1ccc(C=C2SC(=N)N(c3ccccc3OC)C2=O)cc1 | 6.97% | 24.5%
6 | CCN(Cc1ccccc1)C1CCN(Cc2cc(Br)ccc2O)CC1 | 12.7% | 16.8%
7 | COc1ccc2c(=O)cc(C(Cl)(Cl)Cl)oc2c1 | 18.3% | 25.3%
8 | O=C(CSc1ccc2nnc(-c3cccc(F)c3)n2n1)Nc1ccc2c(c1)OCO2 | 19.2% | 5.98%
9 | Cc1ccc(-c2nc3ccccc3o2)cc1NCc1cc(Cc2ccccc2)ccc1O | 10.4% | 1.18%
10 | CN(C)c1ccc(-c2nc3cc(N)ccc3[nH]2)cc1 | 16.4% | -1%
11 | CCOc1c(Br)cc(C2C(C(=O)OC)=CN(C)C=C2C(=O)OC)cc1OC | 14.1% | 7.76%
12 | Cc1ccc(-c2cc3c(nn2)-c2ccccc2C3=O)cc1 | 17.3% | 41.8%
13 | CC(=O)NCCc1nc2ccccc2n1Cc1ccc(C(C)C)cc1 | 8.72% | 2.04%
14 | CC(C)=CCN1CCC(C(=O)Nc2ccc(-c3nc4ccccc4[nH]3)cc2)CC1 | 17.3% | 12.5%
15 | Nc1nc(Nc2cccc(F)c2)nc2ccccc12 | 9.12% | 13.4%
16 | COc1cc(CNCCc2ccc(Cl)cc2)cc(OC)c1O | 35.9% | 0.392%
17 | CC(=O)Nc1nnc(SCc2c(C)cc(C(C)(C)C)cc2C)s1 | 19.7% | 3.55%
18 | O=C(Nc1ccc(C23CC4CC(CC(c5ccccc5)(C4)C2)C3)cc1)c1cccs1 | -0.283% | 9.48%
19 | CCc1ccc(Nc2cc(C)c3ccc(O)cc3n2)cc1 | 17.3% | 4.16%
20 | Cc1ccc(F)cc1NC(=O)c1cc(Cl)ccc1Nc1ccccc1 | 28.5% | 6.66%

Row | SMILES | inhibition at 25 µM [1] | inhibition at 25 µM [2]
21 | COc1cccc(C(=O)Nc2ccc(-c3nc4ccccc4[nH]3)cc2)c1 | 0.862% | 7.2%
22 | CCCCNCC(O)(c1ccc(Cl)cc1)c1ccc(Cl)cc1 | 9.41% | 16.9%
23 | FC(F)(F)c1cccc(CNC2CCN(CCc3ccccc3)CC2)c1 | 2.96% | 22.8%
24 | Oc1ccc(Br)cc1CN1CCN(Cc2ccc(Cl)cc2)CC1 | 17.6% | 19.7%
25 | CCN(CC)CCNc1ncnc2c1[nH]c1ccc(Br)cc12 | 13.4% | 20.6%
26 | CC(=O)c1sc(NC(=O)Nc2ccc(C)cc2C)nc1C | 6.64% | 10.3%
27 | OC(CNC1CCCCC1)Cn1c2ccc(I)cc2c2cc(I)ccc21 (stereo not given) | 10.9% | 16.9%
28 | CCN(CC)CCNc1ccnc2cc3ccccc3cc12 | 0.0721% | 0.862%
29 | COc1cc(C(=O)ON=C(N)Cc2cccc3ccccc23)cc(OC)c1OC | 24.2% | 59.3%
30 | CCCc1c(C)nc2ccccc2c1O | 9.94% | 15.9%
31 | CCOC(=O)c1cnc2c(C)cccc2c1Nc1ccc(C(C)=O)cc1 | 8.24% | 0.392%
32 | Cc1cc(NC(=O)C2c3ccccc3C(=O)N(CC(C)C)C2c2cccs2)no1 (stereo not given) | 13.1% | 12.2%
33 | COc1ccc(C(O)(CCC(C)C)C(CN2CCOCC2)c2ccc(Cl)cc2)cc1 (stereo not given) | 10% | 4.78%
34 | CCOc1ccc2c(c1)CN(Cc1ccc(Cl)cc1)CO2 | 20.5% | 16.1%
35 | Cc1ccc(N2C(=O)C3C(C2=O)C2(c4ccccc4)C(=O)C3(c3ccccc3)C(c3ccccc3)=C2c2ccccc2)cc1 (stereo not given) | 4.88% | 9.93%
36 | CC(C)CNC(=O)c1c(N)n(CCc2ccccc2F)c2nc3ccccc3nc12 | 2.78% | 14.8%
37 | COc1cccc(C2(C)Nc3ccccc3-c3nc4ccccc4n32)c1 (stereo not given) | 8.19% | 14.9%
38 | Cc1ccccc1OCCSc1nc2ccc(NC(=O)c3cccs3)cc2s1 | 16.4% | 51.3%
39 | COc1ccc(-c2nc3cc(Cc4ccc5[nH]c(-c6ccc(OC)cc6)nc5c4)ccc3[nH]2)cc1 | 29.3% | 41.7%
40 | CC(NCc1ccccc1)c1cc(Cl)ccc1O (stereo not given) | 14.8% | 21.2%

Row | SMILES | inhibition at 25 µM [1] | inhibition at 25 µM [2]
41 | CCOC(=O)c1cnc2ccc(OC)cc2c1NCc1ccccc1 | 23% | 40.2%
42 | CCCN(CCC)CC(O)COc1ccccc1C(=O)Nc1ccccc1 (stereo not given) | 17.1% | 20.9%
43 | O=c1nc(C=Cc2ccc(Cl)cc2)oc2ccccc12 | 7.84% | 46.8%
44 | Cc1sc2ncnc(Sc3nc4ccccc4[nH]3)c2c1C | 22.5% | 14.9%
45 | CCOc1cc2c(cc1OCC)C(c1cc(Cl)ccc1O)NCC2 (stereo not given) | -6.67% | 7.45%
46 | O=C(Nc1cccc(C2=NCCN2)c1)Nc1cccc(C2=NCCN2)c1 [IMIDOCARB] | 11.1% | 5.56%
47 | CCOc1ccc(/C=C/c2nc(=O)c3ccccc3o2)cc1 | 12% | 18.9%
48 | c1ccc(Cn2c(N=Nc3c(Nc4ccccc4)ccc4ccccc34)nc3ccccc32)cc1 | 18.7% | 14.9%
49 | CCC(O)c1ccc(Br)cc1NC(=O)c1cccc(Cl)c1 (stereo not given) | 14.6% | 13.9%
50 | COc1ccc(-c2nc(NC(=O)CS(=O)(=O)c3ccc(F)cc3)sc2C)cc1 | 21.5% | 14.9%
51 | CCCCNc1nc(NC(C)(C)C)nc(NC(C)(C)C)n1 | 42.1% | 32.8%
52 | COc1ccc(NC(=O)C2c3ccccc3C(=O)N(CC(C)C)C2c2cccs2)cc1Cl (stereo not given) | 22.2% | -1.46%
53 | Cc1cc(Nc2ccc(C)c(Cl)c2)n2nc(C(F)(F)F)nc2n1 | 4.53% | 19.5%
54 | O=[N+]([O-])c1ccc(C=NNc2nc3ccccc3[nH]2)cc1 | 16.2% | 16.3%
55 | CCN(CC)c1ccc(NC(=O)c2cccs2)cc1 | 13.1% | 4.01%
56 | COC(=O)c1ccc(C2C3=C(O)CC(c4ccc(F)cc4)CC3=Nc3ccccc3N2C(=O)c2ccccc2)cc1 (stereo not given) | 18.9% | 28.3%
57 | COc1ccc(-c2c(C)nn3c(N)c(C#N)cnc23)cc1OC | 11.5% | 5.83%
58 | Cc1ccc(OCCCCCCNCCO)c(C)c1 | 13% | 17.5%
59 | CCC(c1ccccc1)c1nn2c(-c3cccs3)nnc2s1 (stereo not given) | 20.8% | 19.3%
60 | Cc1ccc(Cn2c(N3CCC(C(=O)NCc4cccs4)CC3)nc3ccccc32)cc1 | 5.22% | 44.4%
